Test results reported in patent publication US10668056B2, “Pharmaceutical composition comprising indole derivatives, process for preparation and use thereof” (VIVOLUX AB, priority 2015, dated 2020).

How the values were obtained:
[1] = Stability study of lyophilised powder, 2-8° C.; type: physicochemical; conditions: for Any individual purity / Assay / RRT 1.13 (impurity) / RRT 1.23-1.24 (impurity) / RRT 1.47-1.51 (impurity) / Specified impurity* (hydrolysis impurity) / Total impurities / Water content / Z-isomer RRT 0.92-0.93 / pH: 2-8° C.
[2] = Stability of compound A2 in aqueous media; type: physicochemical
Method: Also, it is understood that the pH is of significance for the stability of compound A2 in aqueous media with the best stability at pH around 1-4, higher concentration of the substance results in lower pH. 1 mg/ml of said aqueous solution has a pH about 2-3.

[3] = Solubility of lyophilisate in water; type: physicochemical
Method: Glucose and mannitol were evaluated as excipients, both alone and in combination with NaCl. The best result regarding solubility, texture of the lyophilised cake and suppression of impurity formation was obtained with 5% (w/v) mannitol as additive.
The best result concerning formation of impurities and texture of the freeze dried cake was obtained with the freeze drying cycle described in Table 3 and the mannitol content set at 5%.

[4] = Stability study of lyophilised powder, accelerated 25° C./60% RH
Method: The stability study of the di-hydrochloride ethanol co-crystal precipitate and of the lyophilized di-hydrochloride salt was conducted in accordance with the International Conference on Harmonizations (ICH) guideline Q1A (R2) Stability Testing of New Drug Substances and Products. All analytical instruments used to analyze the stability samples during the study are qualified in compliance with current cGMP.
The LOQ is 0.05%, peaks <than LOQ was recorded as <0.05%.

CC(=NNc1nnc2c(n1)[nH]c1c(C)cccc12)c1ccccn1.Cl.Cl [Compound A2]
appearance ([1]; 2-8° C. up to 24 months): yellow to orange freeze dried cake during the whole test period | appearance after reconstitution ([1]; 2-8° C. up to 24 months): yellow to orange solution without visible particles | Any individual purity ([1]; 0 months): 0.4% | Assay ([1]; 0 months): 97.8 % w/w | RRT 1.13 (impurity) ([1]; 0 months): 0.05% | RRT 1.23-1.24 (impurity) ([1]; 0 months): 0.06% | RRT 1.47-1.51 (impurity) ([1]; 0 months): 0.37% | Specified impurity* (hydrolysis impurity) ([1]; 0 months): <0.5% | Total impurities ([1]; 0 months): 0.7% | Water content ([1]; 0 months): 0.33% | Z-isomer RRT 0.92-0.93 ([1]; 0 months): 0.1% | pH ([1]; 0 months): 1.6 | Any individual purity ([1]; 1 month): 0.3% | Assay ([1]; 1 month): 98.4 % w/w | RRT 1.13 (impurity) ([1]; 1 month): <0.05% | RRT 1.23-1.24 (impurity) ([1]; 1 month): 0.05% | RRT 1.47-1.51 (impurity) ([1]; 1 month): 0.32% | Specified impurity* (hydrolysis impurity) ([1]; 1 month): <0.05% | Total impurities ([1]; 1 month): 0.5% | Water content ([1]; 1 month): 0.41% | Z-isomer RRT 0.92-0.93 ([1]; 1 month): 0.1% | pH ([1]; 1 month): 1.6 | Any individual purity ([1]; 3 months): 0.1% | Assay ([1]; 3 months): 95.9 % w/w | RRT 1.13 (impurity) ([1]; 3 months): <0.05% | RRT 1.23-1.24 (impurity) ([1]; 3 months): 0.08% | RRT 1.47-1.51 (impurity) ([1]; 3 months): 0.05% | Specified impurity* (hydrolysis impurity) ([1]; 3 months): <0.05% | Total impurities ([1]; 3 months): 0.3% | Water content ([1]; 3 months): 0.47% | Z-isomer RRT 0.92-0.93 ([1]; 3 months): 0.1% | pH ([1]; 3 months): 1.6 | Any individual purity ([1]; 6 months): 0.1% | Assay ([1]; 6 months): 97.3 % w/w | RRT 1.13 (impurity) ([1]; 6 months): <0.05% | RRT 1.23-1.24 (impurity) ([1]; 6 months): 0.05% | RRT 1.47-1.51 (impurity) ([1]; 6 months): <0.05% | Specified impurity* (hydrolysis impurity) ([1]; 6 months): 0.08% | Total impurities ([1]; 6 months): 0.4% | Water content ([1]; 6 months): 0.37% | Z-isomer RRT 0.92-0.93 ([1]; 6 months): 0.1% | pH ([1]; 6 months): 1.5 | Any individual purity ([1]; 12 months): 0.1% | Assay ([1]; 12 months): 93.9 % w/w | RRT 1.13 (impurity) ([1]; 12 months): <0.05% | RRT 1.23-1.24 (impurity) ([1]; 12 months): 0.06% | RRT 1.47-1.51 (impurity) ([1]; 12 months): <0.05% | Specified impurity* (hydrolysis impurity) ([1]; 12 months): 0.08% | Total impurities ([1]; 12 months): 0.2% | Water content ([1]; 12 months): 0.53% | Z-isomer RRT 0.92-0.93 ([1]; 12 months): <0.05% | pH ([1]; 12 months): 1.6 | Any individual purity ([1]; 18 months): 0.1% | Assay ([1]; 18 months): 94.6 % w/w | RRT 1.13 (impurity) ([1]; 18 months): 0.05% | RRT 1.23-1.24 (impurity) ([1]; 18 months): 0.05% | RRT 1.47-1.51 (impurity) ([1]; 18 months): 0.05% | Specified impurity* (hydrolysis impurity) ([1]; 18 months): 0.10% | Total impurities ([1]; 18 months): 0.3% | Water content ([1]; 18 months): 0.43% | Z-isomer RRT 0.92-0.93 ([1]; 18 months): <0.05% | pH ([1]; 18 months): 1.6 | Any individual purity ([1]; 24 months): 0.10% | Assay ([1]; 24 months): 94.2 % w/w | RRT 1.13 (impurity) ([1]; 24 months): <LOQ | RRT 1.23-1.24 (impurity) ([1]; 24 months): 0.05% | RRT 1.47-1.51 (impurity) ([1]; 24 months): 0.10% | Specified impurity* (hydrolysis impurity) ([1]; 24 months): 0.09% | Total impurities ([1]; 24 months): 0.34% | Water content ([1]; 24 months): 0.39% | Z-isomer RRT 0.92-0.93 ([1]; 24 months): 0.05% | pH ([1]; 24 months): 1.7 | bacterial growth / sterility ([1]; 24 months period): No bacterial growth was detected | reconstitution time ([1]; Table 4a study): up to 3 minutes | degradation on storage ([1]; vials crimp sealed under nitrogen, 5° C., 24 months): no degradation was seen | pH of aqueous solution ([2]; 1 mg/ml): 2-3 | pH of best stability ([2]; aqueous media): 1-4 | time over which formation of by-products is suppressed ([2]; aqueous media, 1 mg/ml): up to 24 hrs | hydrolysis in aqueous solvents ([2]; aqueous solvents): readily hydrolyses | solubility in water ([3]; after lyophilisation versus prior to (A1)): less soluble in water | solubility on addition of NaCl ([3]; increase in pH generated by NaCl): decreased the solubility | bacterial growth / sterility ([4]; 24 months period in room temperature): No bacterial growth was detected | appearance ([4]; 25° C./60% RH): yellow to orange freeze dried cake during the whole test period | appearance after reconstitution ([4]; 25° C./60% RH): yellow to orange solution without visible particles | reconstitution time ([4]; 25° C./60% RH): up to 3 minutes | Any individual purity ([4]; 25° C./60% RH, 0 months): 0.4% | Assay ([4]; 25° C./60% RH, 0 months): 97.8 % w/w | RRT 1.13 (impurity) ([4]; 25° C./60% RH, 0 months): 0.05% | RRT 1.23-1.24 (impurity) ([4]; 25° C./60% RH, 0 months): 0.06% | RRT 1.47-1.51 (impurity) ([4]; 25° C./60% RH, 0 months): 0.37% | Specified impurity* (hydrolysis impurity) ([4]; 25° C./60% RH, 0 months): <0.5% | Total impurities ([4]; 25° C./60% RH, 0 months): 0.7% | Water content ([4]; 25° C./60% RH, 0 months): 0.33% | Z-isomer RRT 0.92-0.93 ([4]; 25° C./60% RH, 0 months): 0.1% | pH ([4]; 25° C./60% RH, 0 months): 1.6 | Any individual purity ([4]; 25° C./60% RH, 1 month): 0.1% | Assay ([4]; 25° C./60% RH, 1 month): 97.2 % w/w | RRT 1.13 (impurity) ([4]; 25° C./60% RH, 1 month): <0.05% | RRT 1.23-1.24 (impurity) ([4]; 25° C./60% RH, 1 month): 0.05% | RRT 1.47-1.51 (impurity) ([4]; 25° C./60% RH, 1 month): 0.13% | Specified impurity* (hydrolysis impurity) ([4]; 25° C./60% RH, 1 month): 0.1% | Total impurities ([4]; 25° C./60% RH, 1 month): 0.3% | Water content ([4]; 25° C./60% RH, 1 month): 0.39% | Z-isomer RRT 0.92-0.93 ([4]; 25° C./60% RH, 1 month): <0.05% | pH ([4]; 25° C./60% RH, 1 month): 1.6 | Any individual purity ([4]; 25° C./60% RH, 3 months): 0.2% | Assay ([4]; 25° C./60% RH, 3 months): 95.4 % w/w | RRT 1.13 (impurity) ([4]; 25° C./60% RH, 3 months): <0.05% | RRT 1.23-1.24 (impurity) ([4]; 25° C./60% RH, 3 months): 0.08% | RRT 1.47-1.51 (impurity) ([4]; 25° C./60% RH, 3 months): 0.05% | Specified impurity* (hydrolysis impurity) ([4]; 25° C./60% RH, 3 months): <0.05% | Total impurities ([4]; 25° C./60% RH, 3 months): 0.7% | Water content ([4]; 25° C./60% RH, 3 months): 0.55% | Z-isomer RRT 0.92-0.93 ([4]; 25° C./60% RH, 3 months): 0.1% | pH ([4]; 25° C./60% RH, 3 months): 1.6 | Any individual purity ([4]; 25° C./60% RH, 6 months): 0.1% | Assay ([4]; 25° C./60% RH, 6 months): 98.3 % w/w | RRT 1.13 (impurity) ([4]; 25° C./60% RH, 6 months): <0.05% | RRT 1.23-1.24 (impurity) ([4]; 25° C./60% RH, 6 months): 0.06% | RRT 1.47-1.51 (impurity) ([4]; 25° C./60% RH, 6 months): <0.05% | Specified impurity* (hydrolysis impurity) ([4]; 25° C./60% RH, 6 months): 0.08% | Total impurities ([4]; 25° C./60% RH, 6 months): 0.4% | Water content ([4]; 25° C./60% RH, 6 months): 0.45% | Z-isomer RRT 0.92-0.93 ([4]; 25° C./60% RH, 6 months): 0.1% | pH ([4]; 25° C./60% RH, 6 months): 1.5 | Any individual purity ([4]; 25° C./60% RH, 12 months): 0.1% | Assay ([4]; 25° C./60% RH, 12 months): 94.6 % w/w | RRT 1.13 (impurity) ([4]; 25° C./60% RH, 12 months): <0.05% | RRT 1.23-1.24 (impurity) ([4]; 25° C./60% RH, 12 months): 0.06% | RRT 1.47-1.51 (impurity) ([4]; 25° C./60% RH, 12 months): <0.05% | Specified impurity* (hydrolysis impurity) ([4]; 25° C./60% RH, 12 months): 0.08% | Total impurities ([4]; 25° C./60% RH, 12 months): 0.2% | Water content ([4]; 25° C./60% RH, 12 months): 0.59% | Z-isomer RRT 0.92-0.93 ([4]; 25° C./60% RH, 12 months): 0.10% | pH ([4]; 25° C./60% RH, 12 months): 1.6 | Any individual purity ([4]; 25° C./60% RH, 18 months): 0.1% | Assay ([4]; 25° C./60% RH, 18 months): 93.9 % w/w | RRT 1.23-1.24 (impurity) ([4]; 25° C./60% RH, 18 months): 0.06% | Specified impurity* (hydrolysis impurity) ([4]; 25° C./60% RH, 18 months): 0.10% | Total impurities ([4]; 25° C./60% RH, 18 months): 0.20% | Water content ([4]; 25° C./60% RH, 18 months): 0.49% | Z-isomer RRT 0.92-0.93 ([4]; 25° C./60% RH, 18 months): <0.05% | pH ([4]; 25° C./60% RH, 18 months): 1.5 | Any individual purity ([4]; 25° C./60% RH, 24 months): 0.10% | Assay ([4]; 25° C./60% RH, 24 months): 94.5 % w/w | RRT 1.13 (impurity) ([4]; 25° C./60% RH, 24 months): <LOQ | RRT 1.23-1.24 (impurity) ([4]; 25° C./60% RH, 24 months): 0.06% | RRT 1.47-1.51 (impurity) ([4]; 25° C./60% RH, 24 months): 0.09% | Specified impurity* (hydrolysis impurity) ([4]; 25° C./60% RH, 24 months): 0.10% | Total impurities ([4]; 25° C./60% RH, 24 months): 0.36% | Water content ([4]; 25° C./60% RH, 24 months): 0.45% | Z-isomer RRT 0.92-0.93 ([4]; 25° C./60% RH, 24 months): 0.05% | pH ([4]; 25° C./60% RH, 24 months): 1.6 | time the lyophilisate is stable ([4]; room temperature): at least 24 months
